Test results as given in US9447122B2, “Arginase inhibitors and methods of use thereof” (AstraZeneca AB, priority 2010, dated 2016).

biological target: T1, human arginase I (Homo sapiens, UniProt P05089); experiment: Arginase inhibition, QuantiChrom colorimetric urea assay, IC50 converted to Ki; assay type: biochemical; conditions: Table 3; pH 7.5; read-out: human Arginase I pH 7.5, Ki assigned value
T1 sequence (P05089 1-322): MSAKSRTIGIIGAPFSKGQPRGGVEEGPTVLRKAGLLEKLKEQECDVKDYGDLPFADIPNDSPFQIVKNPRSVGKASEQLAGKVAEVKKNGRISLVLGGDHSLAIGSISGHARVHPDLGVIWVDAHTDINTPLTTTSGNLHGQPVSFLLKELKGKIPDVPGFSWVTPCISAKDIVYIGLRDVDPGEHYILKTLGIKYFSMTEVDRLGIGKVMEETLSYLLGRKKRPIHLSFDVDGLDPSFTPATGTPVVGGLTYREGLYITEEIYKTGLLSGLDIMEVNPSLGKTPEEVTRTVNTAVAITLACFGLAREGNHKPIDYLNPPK
Protocol: (§1) For some compounds, their inhibitory potency at pH 7.5 was compared to the inhibitory potency of ABH at pH 7.5.
(§2) Quantitative determination of arginase activity was performed in a 96-well format by a colorimetric method using the QuantiChrom™ Arginase Assay Kit available from BioAssay Systems (Hayward, Calif., Catalog No. DARG-200) according to the manufacturer's protocol. Modifications were made to reagent quantities to suit the assaying of a highly purified sample.
(§3) The intensity of the color was directly proportional to the arginase activity in the sample.
(§4) The rate of urea production was measured in the presence of twelve different concentrations of each potential inhibitor compound. In a typical assay, seven different compounds were tested relative to a control inhibitor (e.g. ABH) against one enzyme (either human ArgI or human ArgII) at a particular pH (either 9.5 or 7.5). The pH of the solution was controlled using an appropriate pH buffering compound at 60 mM concentrations; for example, 60 mM glycine (pH 9.5) or 60 mM HEPES (pH 7.5). The half maximal inhibitory concentration (IC50) was determined by constructing a dose-response curve.

SMILES | Ki [nM]
COCCN(C)CCCC(N)(CCCCB(O)O)C(=O)O (centres unmarked) [Example 85] | 11 to 50
CN(C)CCN(C)CCCC(N)(CCCCB(O)O)C(=O)O (centres unmarked) [Example 88] | 51 to 100
CN(C)CCNCCCC(N)(CCCCB(O)O)C(=O)O (centres unmarked) [Example 89] | < 10
NC(CCCCB(O)O)(CCCCN1CCNCC1)C(=O)O (centres unmarked) [Example 93] | 11 to 50
NC(CCCCB(O)O)(CCCCN1CCN(c2ccc(Cl)c(Cl)c2)CC1)C(=O)O (centres unmarked) [Example 94] | 11 to 50
NC(CCCCB(O)O)(CCCCN1CCC(Cc2ccc(F)c(F)c2)CC1)C(=O)O (centres unmarked) [Example 95] | 51 to 100
NC(CCCCB(O)O)(CCCCN1CCc2ccccc2C1)C(=O)O (centres unmarked) [Example 96] | 11 to 50
NC(CCCCB(O)O)(CCCN1CCC(C(=O)c2ccc(F)cc2)CC1)C(=O)O (centres unmarked) [Example 101] | < 10
NC(CCCCB(O)O)(CCCN1C2CCC1CC(n1cnc3ccccc31)C2)C(=O)O (centres unmarked) [Example 102] | < 10
NC(CCCCB(O)O)(CCCN1CCC(Nc2ccccc2)CC1)C(=O)O (centres unmarked) [Example 103] | < 10
CN1CCN(CCCC(N)(CCCCB(O)O)C(=O)O)CC1 (centres unmarked) [Example 106] | 11 to 50

same assay, conditions: Table 3; pH 9.5; read-out: human Arginase I pH 9.5, Ki assigned value

SMILES | Ki [nM]
COCCN(C)CCCC(N)(CCCCB(O)O)C(=O)O (centres unmarked) [Example 85] | 11 to 50
CN(C)CCN(C)CCCC(N)(CCCCB(O)O)C(=O)O (centres unmarked) [Example 88] | 11 to 50
CN(C)CCNCCCC(N)(CCCCB(O)O)C(=O)O (centres unmarked) [Example 89] | < 10
NC(CCCCB(O)O)(CCCCN1CCNCC1)C(=O)O (centres unmarked) [Example 93] | 11 to 50
NC(CCCCB(O)O)(CCCCN1CCN(c2ccc(Cl)c(Cl)c2)CC1)C(=O)O (centres unmarked) [Example 94] | 11 to 50
NC(CCCCB(O)O)(CCCCN1CCC(Cc2ccc(F)c(F)c2)CC1)C(=O)O (centres unmarked) [Example 95] | < 10
NC(CCCCB(O)O)(CCCCN1CCc2ccccc2C1)C(=O)O (centres unmarked) [Example 96] | 11 to 50
NC(CCCCB(O)O)(CCCN1CCC(C(=O)c2ccc(F)cc2)CC1)C(=O)O (centres unmarked) [Example 101] | 11 to 50
NC(CCCCB(O)O)(CCCN1C2CCC1CC(n1cnc3ccccc31)C2)C(=O)O (centres unmarked) [Example 102] | 11 to 50
NC(CCCCB(O)O)(CCCN1CCC(Nc2ccccc2)CC1)C(=O)O (centres unmarked) [Example 103] | 11 to 50
CN1CCN(CCCC(N)(CCCCB(O)O)C(=O)O)CC1 (centres unmarked) [Example 106] | 11 to 50

biological target: T2, human arginase II (Homo sapiens, UniProt P78540); experiment: as above; assay type: biochemical; conditions: Table 3; pH 7.5; read-out: human Arginase II pH 7.5, Ki assigned value
T2 sequence (P78540 23-354): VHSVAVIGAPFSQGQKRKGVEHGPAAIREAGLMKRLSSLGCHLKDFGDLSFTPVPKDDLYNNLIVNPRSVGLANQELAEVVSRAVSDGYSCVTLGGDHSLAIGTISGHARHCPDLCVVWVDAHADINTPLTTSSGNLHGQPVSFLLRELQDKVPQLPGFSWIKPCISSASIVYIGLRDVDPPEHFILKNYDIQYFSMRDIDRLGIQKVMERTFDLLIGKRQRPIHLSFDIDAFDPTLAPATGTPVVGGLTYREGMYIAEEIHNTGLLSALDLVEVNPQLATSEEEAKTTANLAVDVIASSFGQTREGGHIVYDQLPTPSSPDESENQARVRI
Protocol: as §1, §2, §3, §4

SMILES | Ki [nM]
COCCN(C)CCCC(N)(CCCCB(O)O)C(=O)O (centres unmarked) [Example 85] | 11 to 50
CN(C)CCN(C)CCCC(N)(CCCCB(O)O)C(=O)O (centres unmarked) [Example 88] | 51 to 100
CN(C)CCNCCCC(N)(CCCCB(O)O)C(=O)O (centres unmarked) [Example 89] | < 10
NC(CCCCB(O)O)(CCCCN1CCNCC1)C(=O)O (centres unmarked) [Example 93] | > 400
NC(CCCCB(O)O)(CCCCN1CCN(c2ccc(Cl)c(Cl)c2)CC1)C(=O)O (centres unmarked) [Example 94] | < 10
NC(CCCCB(O)O)(CCCCN1CCC(Cc2ccc(F)c(F)c2)CC1)C(=O)O (centres unmarked) [Example 95] | 11 to 50
NC(CCCCB(O)O)(CCCCN1CCc2ccccc2C1)C(=O)O (centres unmarked) [Example 96] | 11 to 50
NC(CCCCB(O)O)(CCCN1CCC(C(=O)c2ccc(F)cc2)CC1)C(=O)O (centres unmarked) [Example 101] | < 10
NC(CCCCB(O)O)(CCCN1C2CCC1CC(n1cnc3ccccc31)C2)C(=O)O (centres unmarked) [Example 102] | < 10
NC(CCCCB(O)O)(CCCN1CCC(Nc2ccccc2)CC1)C(=O)O (centres unmarked) [Example 103] | < 10
CN1CCN(CCCC(N)(CCCCB(O)O)C(=O)O)CC1 (centres unmarked) [Example 106] | 11 to 50

same assay, conditions: Table 3; pH 9.5; read-out: human Arginase II pH 9.5, Ki assigned value

SMILES | Ki [nM]
COCCN(C)CCCC(N)(CCCCB(O)O)C(=O)O (centres unmarked) [Example 85] | 101 to 250
CN(C)CCN(C)CCCC(N)(CCCCB(O)O)C(=O)O (centres unmarked) [Example 88] | 51 to 100
CN(C)CCNCCCC(N)(CCCCB(O)O)C(=O)O (centres unmarked) [Example 89] | 11 to 50
NC(CCCCB(O)O)(CCCCN1CCNCC1)C(=O)O (centres unmarked) [Example 93] | 11 to 50
NC(CCCCB(O)O)(CCCCN1CCN(c2ccc(Cl)c(Cl)c2)CC1)C(=O)O (centres unmarked) [Example 94] | 11 to 50
NC(CCCCB(O)O)(CCCCN1CCC(Cc2ccc(F)c(F)c2)CC1)C(=O)O (centres unmarked) [Example 95] | < 10
NC(CCCCB(O)O)(CCCCN1CCc2ccccc2C1)C(=O)O (centres unmarked) [Example 96] | 11 to 50
NC(CCCCB(O)O)(CCCN1CCC(C(=O)c2ccc(F)cc2)CC1)C(=O)O (centres unmarked) [Example 101] | 11 to 50
NC(CCCCB(O)O)(CCCN1C2CCC1CC(n1cnc3ccccc31)C2)C(=O)O (centres unmarked) [Example 102] | 11 to 50
NC(CCCCB(O)O)(CCCN1CCC(Nc2ccccc2)CC1)C(=O)O (centres unmarked) [Example 103] | 11 to 50
CN1CCN(CCCC(N)(CCCCB(O)O)C(=O)O)CC1 (centres unmarked) [Example 106] | 251 to 400
